Experimental data from publication PMC8587999, “Assessment of the Activity of Decoquinate and Its Quinoline-O-Carbamate Derivatives against Toxoplasma gondii In Vitro and in Pregnant Mice Infected with T. gondii Oocysts” (Molecules, 2021).
Read-outs that look alike come from different tables or passages of the source.

Assays:
[1] = system: BAG1 (bradyzoite antigen 1) expression in T. gondii Me49; assay: Immunofluorescence staining for BAG1 expression in TgMe49-infected HFF; assay type: cell-based, Toxoplasma gondii; details: treatment for 48 h
Experimental: For immunofluorescence microscopy, 4 × 10^4 HFF were grown on glass coverslips for 24 h to form a sub-confluent monolayer and were exposed to 1.2 × 10^5 TgMe49 tachyzoites during 4 h at 37 °C and 5% CO2. The medium was replaced and supplemented with 20 nM DCQ and RMB060, or medium containing DMSO as control. Cultures infected with TgPgSp1 (low passage number) served as positive control for BAG1 (bradyzoite antigen 1) expression. Infected cells were cultured for 16 h, 24 h, and 48 h and fixed and labelled for immunofluorescence staining as described previously. A polyclonal rabbit anti-BAG1 antiserum was applied at 1:200 dilution, followed by a goat-anti-rabbit fluorescein-isothiocyanate conjugate (1:300), the monoclonal mouse anti-TgSAG1 antibody was diluted (1:100), followed by goat anti-mouse conjugated to tetramethylrhodamine-isothiocyanate at 1:300. Subsequently, samples were mounted in H-1200 Vectashield mounting medium (Vector Laboratories, Burlingame, CA, USA) containing 4,6-diamidino-2-phenylindole and were viewed on a Nikon E80i fluorescence microscope (Tokyo, Japan). Processing of images was performed using Openlab 5.5.2 (Improvision, PerkinElmer, Waltham, MA, USA) and the ImageJ software, version 1.53 m.

[2] = system: human foreskin fibroblasts (HFF); assay: HFF cytotoxicity assessment; assay type: cell-based; details: for IC50: Homo sapiens, Fibroblast, uninfected HFF, no decline in viability over the concentration range
Experimental: (§1) HFF cytotoxicity assessments and IC50 determinations using cultures of Tg-β-gal tachyzoites grown in HFF were carried out as described previously. IC50 values were calculated with the logit-log-transformation of the relative growth and subsequent regression analysis was done with the corresponding software tool contained in Microsoft Excel software package (Microsoft, Seattle, WA). For the long-term treatments, HFF grown in T25 culture flasks were infected with 5 × 10^5 TgMe49 tachyzoites, and after 4.5 h 0.5 μM DCQ, RMB054 or RMB060 were added. Infected cultures treated with the highest corresponding concentration of DMSO (0.5%) served as controls. Prolonged treatments for up to 24 days were carried out, with the addition of fresh medium containing the respective drug every 3–4 days. Cultures were inspected by light microscopy on a daily basis. On days 3, 6, 9, 13, 16, 20 and 24, the compound-containing medium was removed, and parasites were maintained without drug pressure until host cell lysis (plaque formation) was evident.

[3] = system: T. gondii β-gal tachyzoites; assay: IC50 determination with T. gondii β-gal tachyzoites grown in HFF monolayers; assay type: cell-based, Toxoplasma gondii; details: for Selectivity Index: HFF vs T. gondii, compound applied prior to / concomitantly with infection; for IC50: Toxoplasma gondii, Tg-β-gal in HFF, [upper, lower limit of 95% CI], read-out: IC50 T. gondii (nM) [LS
Experimental: The efficacy of DCQ in vitro was determined using T. gondii β-gal constitutively expressing β-galactosidase grown in HFF monolayers. […] The low IC50 values and the low degree of cytotoxicity against HFF host cells in vitro encouraged us to examine the efficacy of oral treatment of CD1 mice infected with T. gondii oocysts with DCQ at 10 mg/kg/day for 5 days.
Due to the negative effects of treatment with DCQ, we investigated the efficacy in vitro of the three DCQ derivatives RMB054, RMB055 and RMB060 (Figure 1) in comparison to DCQ. Different concentrations of DCQ and the derivatives in DMSO were added to HFF either concomitantly with infection of T. gondii-β-gal tachyzoites, or 3 h after infection. […] The corresponding dose-response curves are shown in Supplementary Materials Figure S1. The viability of uninfected HFF was not impaired by the compounds up to concentrations of 5 µM (DCQ and RMB054) or 10 µM (RMB055, RMB060) (Table 1).
as §1

[4] = compound added 3 h post-infection, LI] Compound Added 3 h Post-infection
[5] = compound added prior to / concomitantly with infection, LI] Compound Added Prior to Infection

Structure (SMILES)	Expression of the bradyzoite marker BAG1 [1]	Concentration up to which viability of uninfected HFF was not impaired [2]	IC50 [2]	Selectivity Index [3]	IC50 [3, 4]	IC50 [3, 5]
CCCCCCCCCCOc1cc2c(OC(=O)N3CCN(CC)C(=O)C3=O)c(C(=O)OCCOC)cnc2cc1OCC [RMB054]	not clearly detectable	5 µM	> 5000 nM	>435	11.4 nM	11.5 nM
CCCCCCCCCCOc1cc2c(OC(=O)N3CCN(S(C)(=O)=O)C3=O)c(C(=O)OCCOC)cnc2cc1OCC [RMB055]		10 µM	> 10000 nM	>50	227 nM	200 nM
